Source: ChEMBL document CHEMBL4425164, “5-Alkyl-2-urea-Substituted Pyridines: Identification of Efficacious Glucokinase Activators with Improved Properties” (ACS Med Chem Lett, 2016)
≈ marks a conversion by molar mass, not a printed value.

Assays:
[1] = molecular target: T1, Hexokinase-4 (Homo sapiens) (UniProt P35557); experiment: Activation of human recombinant glucokinase assessed as enzyme affinity for glucose […] as substrate in presence of NAD+ by glucose 6-phosphate dehydrogenase coupled assay
T1 sequence (whole entry): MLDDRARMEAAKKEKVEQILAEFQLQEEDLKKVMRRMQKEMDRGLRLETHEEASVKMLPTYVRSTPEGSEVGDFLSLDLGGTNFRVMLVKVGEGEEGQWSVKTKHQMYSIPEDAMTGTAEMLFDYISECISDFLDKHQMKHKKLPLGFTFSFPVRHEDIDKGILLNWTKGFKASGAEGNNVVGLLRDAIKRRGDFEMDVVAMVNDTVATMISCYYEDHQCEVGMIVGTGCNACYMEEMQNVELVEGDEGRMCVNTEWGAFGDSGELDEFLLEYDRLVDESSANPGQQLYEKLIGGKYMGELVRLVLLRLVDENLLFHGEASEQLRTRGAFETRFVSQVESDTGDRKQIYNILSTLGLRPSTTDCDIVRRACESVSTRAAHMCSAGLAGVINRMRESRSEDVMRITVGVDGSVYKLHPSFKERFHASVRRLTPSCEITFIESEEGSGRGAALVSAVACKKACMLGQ

[2] = molecular target: T2, Hexokinase-4 (Homo sapiens, UniProt P35557); experiment: Activation of human recombinant glucokinase using 5 mM glucose as substrate in presence of NAD+ and 4% HSA by glucose 6-phosphate dehydrogenase coupled assay
T2 sequence (P35557 whole entry): T1 sequence (whole entry)

[3] = molecular target: T2, Hexokinase-4; experiment: Activation of human recombinant glucokinase using 5 mM glucose as substrate in presence of NAD+ by glucose 6-phosphate dehydrogenase coupled assay
[4] = molecular target: T1, Hexokinase-4 (Homo sapiens); experiment: Activation of human recombinant glucokinase assessed as Vmax ratio using 0.16 to 80 mM of glucose as substrate in presence of NAD+ by glucose 6-phosphate dehydrogenase coupled assay relative to control
[5] = Clearance in rat at 0.5 mg/kg, iv; assay type: ADME, organism-based; conditions: in vivo
[6] = Solubility of the compound in PBS at pH 7.4; assay type: physicochemical; conditions: buffer
[7] = molecular target: T1, Hexokinase-4 (Homo sapiens); experiment: Ratio of EC50 for activation of human recombinant glucokinase in presence of 4% HSA to EC50 for activation of human recombinant glucokinase in absence of 4% HSA
[8] = AUC in rat at 2 mg/kg, po; assay type: ADME, organism-based; conditions: in vivo
[9] = Half life in rat at 0.5 mg/kg, iv; assay type: ADME, organism-based; conditions: in vivo
[10] = AUC in mouse at 5 mg/kg, po; assay type: ADME, organism-based; conditions: in vivo
[11] = Fraction unbound in mouse plasma; assay type: ADME, cell-free
[12] = Volume of distribution at steady state in rat at 0.5 mg/kg, iv; assay type: ADME, organism-based; conditions: in vivo, read-out: Vdss
[13] = Oral bioavailability in rat at 2 mg/kg; assay type: ADME, organism-based; conditions: in vivo
[14] = tested on: Mus musculus; experiment: Antidiabetic activity in ob/ob mouse diabetic model assessed as decrease in blood glucose AUC at 30 mg/kg, po administered 30 mins prior to oral glucose load measured at 30 to 120 mins by OGTT; assay type: functional
[15] = Intrinsic clearance in human liver microsomes; assay type: ADME, Microsome; conditions: read-out: CLH
[16] = Oral bioavailability in mouse at 5 mg/kg; assay type: ADME, organism-based; conditions: in vivo
[17] = Half life in mouse at 1 mg/kg, iv; assay type: ADME, organism-based; conditions: in vivo
[18] = Clearance in mouse at 1 mg/kg, iv; assay type: ADME, organism-based; conditions: in vivo
[19] = tested on: Mus musculus; experiment: Antidiabetic activity in po dosed ob/ob mouse diabetic model assessed as decrease in blood glucose AUC administered 30 mins prior to oral glucose load measured at 30 to 120 mins by OGTT; assay type: functional, organism-based
[20] = Volume of distribution at steady state in mouse at 1 mg/kg, iv; assay type: ADME, organism-based; conditions: in vivo, read-out: Vdss
[21] = Fraction unbound in human plasma; assay type: ADME, cell-free
[22] = Fraction unbound in rat plasma; assay type: ADME, cell-free
[23] = tested on: Rattus norvegicus; experiment: Antidiabetic activity in Sprague-Dawley rat assessed as decrease in blood glucose AUC at 30 mg/kg, po measured at 0.5 to 5 hrs by OGTT; assay type: functional
[24] = tested on: Rattus norvegicus; experiment: Antidiabetic activity in Sprague-Dawley rat assessed as decrease in blood glucose AUC at 3 mg/kg, po measured at 0.5 to 5 hrs by OGTT; assay type: functional
[25] = tested on: Rattus norvegicus; experiment: Antidiabetic activity in po dosed Sprague-Dawley rat assessed as decrease in blood glucose AUC measured at 0.5 to 5 hrs by OGTT; assay type: functional, organism-based
[26] = Drug metabolism assessed as oxidation at THP ring site by metabolic ID study
[27] = tested on: Rattus norvegicus; experiment: Antidiabetic activity in Sprague-Dawley rat assessed as decrease in blood glucose AUC at 10 mg/kg, po measured at 0.5 to 5 hrs by OGTT; assay type: functional
[28] = tested on: Rattus norvegicus; experiment: Antidiabetic activity in Sprague-Dawley rat assessed as decrease in blood glucose AUC at 100 mg/kg, po measured at 0.5 to 5 hrs by OGTT; assay type: functional

SMILES | S0.5 [1] | EC50 [2] | EC50 [3] | Ratio [4] | further results
CNC(=O)Nc1cc(Oc2cncc(C)c2)c([C@H]2C[C@H](O)C2)cn1 | 0.55 mM | 110 nM | 72 nM | 0.92 | –
CNC(=O)Nc1cc(Oc2cncc(C)c2)c([C@]2(O)C[C@H](O)C2)cn1 | 0.67 mM | 7500 nM | 6700 nM | 0.88 | –
CNC(=O)Nc1cc(Oc2cncc(OC)c2)c([C@@H]2CCCN(C)C2)cn1 | 0.73 mM | 2900 nM | 2300 nM | 0.78 | –
CNC(=O)Nc1cc(Oc2cncc(C)c2)c([C@@H]2CC[C@@H](O)C2)cn1 | 0.47 mM | – | – | 0.94 | –
CNC(=O)Nc1cc(Oc2cncc(C)c2)c([C@H]2C[C@@H]2C(C)(C)O)cn1 (relative stereo) | 0.62 mM | – | – | 0.87 | –
CNC(=O)Nc1cc(Oc2cncc(OC)c2)c([C@@H]2CCOC2)cn1 | 0.53 mM | 190 nM | 110 nM | 1.1 | –
CNC(=O)Nc1cc(Oc2cncc(OC)c2)c([C@H]2COCC[C@@H]2F)cn1 | 0.85 mM | 180 nM | 170 nM | 1 | clearance [5]: 26.7 mL/min/kg
CNC(=O)Nc1cc(Oc2cncc(OC)c2)c([C@@H]2CCCOC2)cn1 | 0.62 mM | 110 nM | 720 nM | 0.94 | –
CNC(=O)Nc1cc(Oc2cncc(OC)c2)c(C2=CCCOC2)cn1 | 0.69 mM | 130 nM | 400 nM | 0.99 | clearance [5]: 38.3 mL/min/kg
CNC(=O)Nc1cc(Oc2cncc(OC)c2)c([C@@H]2COCC[C@@H]2O)cn1 (relative stereo) | 0.66 mM | – | – | 0.83 | –
CCOCCc1cnc(NC(=O)NC)cc1Oc1cncc(C)c1 | 0.59 mM | 110 nM | 98 nM | 0.84 | solubility [6]: 500 µM (≈ 165 µg/mL); Ratio EC50 [7]: 1 to 3
CNC(=O)Nc1cc(Oc2cncc(C)c2)c(CCCO)cn1 | 0.55 mM | 100 nM | 66 nM | 0.96 | solubility [6]: 500 µM (≈ 158 µg/mL); Ratio EC50 [7]: 1 to 3
CNC(=O)Nc1cc(Oc2cncc(OC)c2)c(C2=CCOCC2)cn1 | 0.82 mM | 98 nM | 66 nM | 1 | clearance [5]: 41.7 mL/min/kg
CNC(=O)Nc1cc(Oc2cncc(C)c2)c([C@H]2C[C@@H](O)C2)cn1 | 0.66 mM | 140 nM | 110 nM | 0.97 | solubility [6]: 332 µM (≈ 109 µg/mL); clearance [5]: 21.7 mL/min/kg; AUC ([8]; read-out: AUC): 1.84 µM·h; half-life [9]: 3 h; AUC [10]: 3.69 µM·h; Fu [11]: 9.4%; Vd [12]: 1.2 L/kg; bioavailability [13]: 39%; inhibition in vivo at 30 mg/kg [14]: 32%; microsomal CLint [15]: < 14 µL/min/mg; bioavailability [16]: 20%; half-life [17]: 1.2 h; clearance [18]: 14.5 mL/min/kg; inhibition [19]: Dose-dependent effect; Vd [20]: 0.65 L/kg; Fu [21]: 25%
CNC(=O)Nc1cc(Oc2cncc(C)c2)c(CCCCO)cn1 | 0.54 mM | 56 nM | 37 nM | 0.87 | solubility [6]: 500 µM (≈ 165 µg/mL); Ratio EC50 [7]: 1 to 3
CNC(=O)Nc1cc(Oc2cncc(OC)c2)c([C@H]2COCCC2(F)F)cn1 | 0.51 mM | 990 nM | 530 nM | 0.89 | –
CNC(=O)Nc1cc(Oc2cncc(C)c2)c([C@H]2C[C@](C)(O)C2)cn1 | 0.7 mM | 300 nM | 160 nM | 0.71 | –
CNC(=O)Nc1cc(Oc2cncc(C)c2)c([C@H]2C[C@@H](C(C)(C)O)C2)cn1 | 0.68 mM | 120 nM | 51 nM | 0.54 | –
CNC(=O)Nc1cc(Oc2cncc(C)c2)c([C@H]2CCC[C@H](O)C2)cn1 | 0.51 mM | 97 nM | 72 nM | 1 | –
CNC(=O)Nc1cc(Oc2cncc(C)c2)c([C@H]2C[C@@H](CO)C2)cn1 | 0.57 mM | 70 nM | 40 nM | 0.82 | –
CNC(=O)Nc1cc(Oc2cncc(OC)c2)c([C@H]2CCCOC2)cn1 | 0.65 mM | 220 nM | 160 nM | 1.1 | Fu [22]: 28%; solubility [6]: 303 µM (≈ 109 µg/mL); CL [5]: 28.3 mL/min/kg; inhibition in vivo at 30 mg/kg [23]: 20%; AUC [8]: 3.64 µM·h; half-life [9]: 0.3 h; inhibition in vivo at 3 mg/kg [24]: 3%; AUC [10]: 0.13 µM·h; Fu [11]: 14%; Vd [12]: 0.66 L/kg; F [13]: 20%; inhibition [25]: Dose-dependent effect; Drug metabolism [26]: Metabolite detected; bioavailability [16]: 5%; inhibition in vivo at 10 mg/kg [27]: 13%; half-life [17]: 0.3 h; clearance [18]: 157 mL/min/kg; Vd [20]: 3.3 L/kg; Fu [21]: 16%; inhibition in vivo at 100 mg/kg [28]: 40%
CNC(=O)Nc1cc(Oc2cncc(C)c2)c(C(C)CO)cn1 (stereo not given) | 0.56 mM | 820 nM | 670 nM | 0.95 | Ratio EC50 [7]: 1 to 3
CNC(=O)Nc1cc(Oc2cncc(C)c2)c([C@H]2C[C@@H]2CO)cn1 (relative stereo) | 0.58 mM | – | – | 1 | –
CNC(=O)Nc1cc(Oc2cncc(C)c2)c(CCO)cn1 | 0.6 mM | 330 nM | 130 nM | 0.9 | solubility [6]: 450 µM (≈ 136 µg/mL); Ratio EC50 [7]: 1 to 3
CNC(=O)Nc1cc(Oc2cncc(C)c2)c(-c2ccc(OCC(C)(C)O)nc2)cn1 | – | – | – | – | clearance [5]: 30 mL/min/kg; AUC ([8]; read-out: AUC): 2.7 µM·h; half-life [9]: 2.3 h; Vd [12]: 2.7 L/kg
CNC(=O)Nc1cc(Oc2cncc(OC)c2)c(C2CCOCC2)cn1 | 0.62 mM | 150 nM | 110 nM | 1 | clearance [5]: 46.7 mL/min/kg
